According to article PMC4924691, “Inhibition of the p53/hDM2 protein-protein interaction by cyclometallated iridium(III) compounds” (Oncotarget, 2016):
Values belong to the molecule of their own block, whether it stands above or below them.

How the values were obtained:
caspase-3/7 = conditions: A375 cells, 6 h, dose-dependent
Protocol: (§1) Transactivation of p53 restricts cellular proliferation by inducing apoptosis and cycle arrest. Therefore, a terminal deoxynucleotidyl transferase (TdT)-mediated dUTP nick and labelling (TUNEL) and Hoechst staining assay were then performed to investigate DNA fragmentation, a hallmark of apoptosis, in apoptotic cells. […] Finally, the effect of 1 on caspase-3/7, an apoptotic executioner under the control of p53, was investigated in A375 cells using a homogeneous luminescence assay.

A375 cells = conditions: 0.3 μM, 6 h
Protocol: as §1

[1] = tested on: p53-driven luciferase activity; conditions: A375 cells carrying endogenous wt p53, 6 h
HeLa = conditions: read-out: IC50 (MTT), HeLa; human cervix carcinoma, p53 wt, 72 h
Protocol: (§2) The cytotoxicity of 1 towards ten cancers cell lines with different p53 statuses (wt, mut or null) was subsequently examined assessed using the MTT assay (Supplementary Table S2).
(§3) Inhibition of cell growth was measured using the MTT reagent (3-(4, 5-dimethylthiazol-2-yl)-2, 5-diphenyltetrazolium bromide). Different cell lines with variable expression levels of p53 protein (A375, A549, HeLa, A2780, A431, MCF7, MD-MBA-231, MD-MBA-468, T47D and H1299 cell lines) were plated onto 96-well plates at a density of 4, 000 cells/well overnight prior to the addition of 1 at different concentrations ranging from 0.01–100 μM for a further 72 h. 10 μL MTT reagent (5 mg/mL) was added to the wells and the cells were incubated for an additional 4 h before 100 μL of DMSO was added to the wells. The absorbance of each well was read on a SpectraMax M5 microplate reader (Molecular Devices) at the wavelength of 570 nm.

H1299 = conditions: read-out: IC50 (MTT), H1299; human lung carcinoma, p53 null, 72 h
Protocol: as §2, §3

MD-MBA-468 = conditions: read-out: IC50 (MTT), MD-MBA-468; human breast carcinoma, p53 mut, 72 h
Protocol: as §2, §3

A549 = conditions: read-out: IC50 (MTT), A549; human lung carcinoma, p53 wt, 72 h
Protocol: as §2, §3

MD-MBA-231 = conditions: read-out: IC50 (MTT), MD-MBA-231; human breast carcinoma, p53 mut, 72 h
Protocol: as §2, §3

A431 = conditions: read-out: IC50 (MTT), A431; human colon carcinoma (so in the source), p53 wt, 72 h
Protocol: as §2, §3

T47D = conditions: read-out: IC50 (MTT), T47D; human breast carcinoma, p53 mut, 72 h
Protocol: as §2, §3

A2780 = conditions: read-out: IC50 (MTT), A2780; human ovarian carcinoma, p53 wt, 72 h
Protocol: as §2, §3

A375 = conditions: read-out: IC50 (MTT), A375; human malignant melanoma, p53 wt, 72 h
Protocol: as §2, §3

MCF7 = conditions: read-out: IC50 (MTT), MCF7; human breast carcinoma, p53 wt, 72 h
Protocol: as §2, §3

GADD45α, PUMA, p21 = conditions: A375 cells
Protocol: as §1
A375 cells seeded in 6-well plates were treated with vehicle, NVP-CGM097 or different concentrations of 1 for 6 h. Cells were then harvested and the quantity of each protein samples was measured by the BCA method. Same aliquot (30 μg) of each protein sample was separated by SDS-PAGE according to the reported procedure of immunoblotting. The signals were visualized using Enhanced chemiluminescent Plus reagents (GE Healthcare) and analyzed by Image Lab. The primary antibodies used were: anti-PUMA (1:500, Santa Cruz), anti-GADD45α (1:500, Santa Cruz), anti-p21 (1:500, Santa Cruz), anti-GAPDH (1:500, Santa Cruz), anti-p53 (1:500, Santa Cruz) and anti-hDM2 antibodies (1:500, Santa Cruz).

[2] = tested on: p53 and hDM2 protein expression levels; assay: Immunoblotting of p53 and hDM2 protein expression in A375 cells; format: cell-based, human; conditions: for effect on hDM2 and p53 protein expression levels: 6 h, up to the highest concentration of 1 μM
Protocol: To assess whether 1 suppressed p53 or hDM2 protein expression levels, resulting in a decrease in the levels of precipitated protein detected in the pull-down assay, an immunoblotting experiment was performed.

p53/hDM2 interaction [3] = tested on: T1, p53/hDM2 interaction; assay: Pull-down assay of p53-Flag/hDM2-myc in A375 cells; format: cell-based, human; conditions: for amount of precipitated hDM2 (pulled down with p53-Flag): 6 h of treatment; for effect of isolated ligands on the p53/hDM2 interaction: Supplementary Figure S4
T1 construct: host or cells: A375 cells
Protocol: A pull-down assay was conducted to further examine the effect of 1 on the p53/hDM2 interaction. A375 cells were co-transfected with cDNAs encoding p53-Flag and hDM2-myc fusion proteins. After 6 h of treatment with NVP-CGM097 or 1, p53/hDM2 complexes were immunoprecipitated using anti-Flag magnetic beads and analysed by immunoblotting.
A375 cells seeded in 6-well plates were co-transfected with pcDNA-Flag-p53 (Addgene) and pCMV-myc3-hDM2 (Addgene) for 6 h using TurboFect transfection reagent following the instruction from manufacturer. Cells were then cultured in Dulbecco's Modified Eagle's Medium (DMEM) complete medium overnight. Serial dilutions of organometallic compounds in low FBS buffer were placed into the wells, and incubated with cells for additional 6 h. Protein samples were collected, and the concentration in the supernatant was determined with the bicinchoninic acid (BCA) method. The […] of p53/hDM2 in the protein samples were pulled down using anti-Flag magnetic beads to capture the FLAG fusion proteins (Sigma) as previously described. The protein-binding beads were washed three time with TBS buffer (50 mM Tris HCl, 150 mM NaCl, pH 7.4) to remove non-specifically bound proteins, and subsequently subjected to the sodium dodecyl sulfate-polyacrylamide gel electrophoresis (SDS-PAGE) by detection with anti-Flag (1:1000, Sigma-Aldrich) and anti-myc antibodies (1:1000, Beyotime).

p53/hDM2 interaction [4] = target: T2, p53/hDM2 interaction (Homo sapiens, UniProt Q00987); assay: Fluorescence anisotropy (FA) assay, displacement of p53_15–31Flu from hDM2_17–126; format: binding; conditions: for IC50 / IC50 against the p53/hDM2 interaction as determined by a FA assay: 150 nM hDM2_17–126, 50 nM p53_15–31Flu, 30 min, room temperature; for IC50: read-out: IC50 against the p53/hDM2 interaction as determined by a FA assay; for effect on fluorescence anisotropy / p53/hDM2 interaction: serial dilutions of compound, hDM2_17–126 with p53_15–31Flu
T2 construct: Expression of hDM2_17–126 recombinant fragment was performed as described previously; made in house
Protocol: To experimentally test the library of the organo-metallic iridium(III) compounds as p53/hDM2 PPI inhibitors, a fluorescence anisotropy (FA) assay was performed as previously described. hDM2_17–126 (recombinant fragment) was incubated with fluorescein-labelled p53 peptide (p53_15–31Flu) and serial dilutions of the organometallic iridium(III) compounds.
Figure 2 FA titration data of 1 1 was incubated with 150 nM hDM2_17–126 recombinant fragment and 50 nM fluorescein-labelled p53 peptide (p53_15–31Flu), and fluorescence anisotropy was measured at 480ex/535em.
Expression of hDM2_17–126 recombinant fragment was performed as described previously. Fluorescence anisotropy assays were used to study the displacement of p53 from hDM2 by organometallic compounds. The experiments were performed in triplicate in a volume of 60 μL of the assay buffer (40 mM Na3PO4, pH 7.50, 200 mM NaCl, 0.02 mg/mL BSA) in black flat-bottom 384-well plates. Different concentrations of organometallic compounds were diluted in the assay buffer containing 150 nM hDM2 and 50 nM p53_15–31Flu (Ac-[…](Flu)-NH2, Peptide Protein Research Ltd.) and incubated at room temperature for 30 min. The intensity and anisotropy was monitored at 480ex/535em ([…] bandwidth) using a Perkin Elmer EnvisionTM 2103 MultiLabel plate reader. The data was analyzed according to published methods.

p53/hDM2 PPI = p53/hDM2 PPI (Homo sapiens, UniProt Q00987); conditions: read-out: IC50, decrease of BRET (p53-HaloTag / NanoLuc-hDM2); A375 cells, 6 h
[5] = 298 K
From the text: (1 picture or pasted object on this page, not shown here) […]

[6] = target: T3, hDM2(17-126) recombinant fragment (human, UniProt Q00987 17-126); assay: fluorescence polarisation; fluorescence anisotropy competition: 150 nM hDM2(17-126) and 50 nM p53(15-31)Flu with serial dilutions of iridium(III) compounds; 40 mM Na3PO4 pH 7.50, 200 mM NaCl, 0.02 mg/mL BSA; room temperature, 30 min; 480ex/535em; conditions: both partners purified
T3 construct: human double minute 2 protein (hDM2, MDM2), human, residues 17-126; also called human double minute 2 protein; source: recombinant fragment, expressed as described previously [33]

Molecule: CCc1ccc2[c](c1)[Ir-3]13([c]4cc(CC)ccc4-c4cccc[n+]41)([n+]1ccccc1-2)[n+]1ccc(Cl)c2ccc4c(Cl)cc[n+]3c4c21.F[P-](F)(F)(F)(F)F [Compound 1, 4,7-dichloro-1, 10-phenanthrolinebis(2-(4-ethylphenyl)pyridine)iridium(III) hexafluorophosphate]
- caspase-3/7 activities (caspase-3/7): significantly activate
- DNA fragmentation (TUNEL) (A375 cells): induce DNA fragmentation
- p53-dependent luciferase activity [1]: increase
- IC50 (HeLa): 480 ± 44.7 nM
- IC50 (H1299): 2200 ± 38.3 nM
- IC50 (MD-MBA-468): 1890 ± 23.3 nM
- IC50 (A549): 232 ± 21.8 nM
- IC50 (MD-MBA-231): 835 ± 42.9 nM
- IC50 (A431): 416 ± 37.4 nM
- IC50 (T47D): 783 ± 483 nM
- IC50 (A2780): 495 ± 32 nM
- IC50 (A375): 647 ± 35.4 nM
- IC50 (MCF7): 547 ± 41 nM
- expression of GADD45α (GADD45α, PUMA, p21): significantly increased
- expression of PUMA (GADD45α, PUMA, p21): significantly increased
- expression of p21 (GADD45α, PUMA, p21): induced
- effect on hDM2 and p53 protein expression levels [2]: no effect
- amount of precipitated hDM2 (pulled down with p53-Flag) (p53/hDM2 interaction [3]): decreased
- IC50 (p53/hDM2 interaction [4]): 16000 nM
- effect on fluorescence anisotropy / p53/hDM2 interaction (p53/hDM2 interaction [4]): decreased significantly
- IC50 (p53/hDM2 PPI): ~1000 nM
- time stable in solution (UV-Vis) ([5]; 80% acetonitrile/20% Tris-HCl buffer, 20 μM): at least 7 days
- time stable in solution (1H NMR) ([5]; 90% [d6] DMSO/10% D2O, 5 mM): at least 7 days

Molecule: F[P-](F)(F)(F)(F)F.[Ir+3].[c-]1ccccc1-n1cccn1.[c-]1ccccc1-n1cccn1.c1ccc(-c2ccccn2)nc1 [Compound 3, 2, 2′-bipyridinebis(1-phenyl-1H-pyrazole)iridium(III) hexafluorophosphate]
- IC50 against the p53/hDM2 interaction as determined by a FA assay (p53/hDM2 interaction [4]): No noticeable binding
- effect on fluorescence anisotropy / p53/hDM2 interaction (p53/hDM2 interaction [4]): no noticeable effect

Molecule: Clc1cc2ccc[n+]3c2c2c1ccc[n+]2[Ir-3]312([c]3ccccc3-c3sc4ccccc4[n+]31)[c]1ccccc1-c1sc3ccccc3[n+]12.F[P-](F)(F)(F)(F)F [Compound 4, 5-chloro-1, 10-phenanthrolinebis(2-phenylbenzo[d]thiazole)iridium(III) hexafluorophosphate]
- IC50 against the p53/hDM2 interaction as determined by a FA assay (p53/hDM2 interaction [4]): No noticeable binding
- effect on fluorescence anisotropy / p53/hDM2 interaction (p53/hDM2 interaction [4]): no noticeable effect

Molecule: F[P-](F)(F)(F)(F)F.c1cc[c]2c(c1)-c1ccc3ccccc3[n+]1[Ir-3]213([c]2ccccc2-c2ccc4ccccc4[n+]21)[n+]1cccc2c4nccnc4c4ccc[n+]3c4c21 [Compound 5, pyrazino[2,3-f][1, 10]phenanthrolinebis(2-phenylquinoline)iridium(III) hexafluorophosphate]
- IC50 (p53/hDM2 interaction [4]): 21000 nM
- effect on fluorescence anisotropy / p53/hDM2 interaction (p53/hDM2 interaction [4]): decreased significantly

Molecule: Clc1cc2nc3c4cccnc4c4ncccc4c3nc2cc1Cl.F[P-](F)(F)(F)(F)F.Fc1c[c-]c(-c2ccccn2)c(F)c1.Fc1c[c-]c(-c2ccccn2)c(F)c1.[Ir+3] [Compound 6, 11, 12-dichlorodipyrido[3,2-a:2′,3′-c]phenazinebis(2-(2,4-difluorophenyl)pyridine)iridium(III) hexafluorophosphate]
- IC50 (p53/hDM2 interaction [4]): 33000 nM
- effect on fluorescence anisotropy / p53/hDM2 interaction (p53/hDM2 interaction [4]): decreased significantly

Molecule: COc1cc2c(cc1OC(C)C)[C@H](c1ccc(Cl)cc1)N(c1ccc(N(C)C[C@H]3CC[C@H](N4CCN(C)C(=O)C4)CC3)cc1)C(=O)C2 [NVP-CGM097, reference compound]
- expression of hDM2 protein ([2]; 1 μM): significantly increased
- amount of precipitated hDM2 (pulled down with p53-Flag) (p53/hDM2 interaction [3]): decreased

Molecule: Clc1ccnc2c1ccc1c(Cl)ccnc12 [dcphen, 4,7-dichloro-1, 10-phenanthroline]
- effect on hDM2 and p53 protein expression levels [2]: Neither eppy nor dcphen ligands were found to have a significant effect
- effect of isolated ligands on the p53/hDM2 interaction (p53/hDM2 interaction [3]): Neither eppy nor dcphen ligands were found to have a significant effect

Molecule: CCc1ccc(-c2ccccn2)cc1 [eppy, 2-(4-ethylphenyl)pyridine]
- effect on hDM2 and p53 protein expression levels [2]: Neither eppy nor dcphen ligands were found to have a significant effect
- effect of isolated ligands on the p53/hDM2 interaction (p53/hDM2 interaction [3]): Neither eppy nor dcphen ligands were found to have a significant effect

- binding result [6]: binds
B1: fluorescein-labelled p53 peptide (p53 15-31 Flu) (peptide)
peptide: SQETFSDLWKLLPENNVC
modifications: N-terminal acetyl (Ac-); fluorescein on the C-terminal cysteine, C(Flu); C-terminal amide (-NH2)
notes: added C-terminal cysteine that carries the fluorescein; not part of p53 15-31; source: synthetic peptide, bought: Peptide Protein Research Ltd
